Assay: xn = mol fraction of the nth substance listed
Settings: 101 kPa, Liquid; for viscosity: Concentric cylinders viscometry; for mass density: Vibrating tube method

CC(O)CN (stereo not given) [1-amino-2-propanol] + CCCCO
Settings	mass density [kg/m3]	viscosity [mPa·s]
288.15 K, x1 = 0.1	827.167	4.019
288.15 K, x1 = 0.2005	841.339	4.952
288.15 K, x1 = 0.3	855.625	6.238
288.15 K, x1 = 0.3999	870.246	8.046
288.15 K, x1 = 0.5	885.14	10.48
288.15 K, x1 = 0.6001	900.478	13.85
288.15 K, x1 = 0.7	916.099	18.2
288.15 K, x1 = 0.8	932.069	24.34
288.15 K, x1 = 0.8997	948.249	32.26
288.15 K, x1 = 1	964.544	43.7
293.15 K, x1 = 0.1	823.338	3.444
293.15 K, x1 = 0.2005	837.455	4.218
293.15 K, x1 = 0.3	851.736	5.202
293.15 K, x1 = 0.3999	866.053	6.617
293.15 K, x1 = 0.5	881.2	8.455
293.15 K, x1 = 0.6001	896.524	10.88
293.15 K, x1 = 0.7	912.152	14.08
293.15 K, x1 = 0.8	928.119	18.34
293.15 K, x1 = 0.8997	944.296	23.93
293.15 K, x1 = 1	960.598	31.68
298.15 K, x1 = 0.1	819.488	2.989
298.15 K, x1 = 0.2005	833.571	3.62
298.15 K, x1 = 0.3	847.825	4.398
298.15 K, x1 = 0.3999	862.123	5.507
298.15 K, x1 = 0.5	877.169	6.858
298.15 K, x1 = 0.6001	892.563	8.782
298.15 K, x1 = 0.7	908.181	11.03
298.15 K, x1 = 0.8	924.144	14.18
298.15 K, x1 = 0.8997	940.31	18.16
298.15 K, x1 = 1	956.618	23.54
303.15 K, x1 = 0.1	815.611	2.615
303.15 K, x1 = 0.2005	829.669	3.129
303.15 K, x1 = 0.3	843.892	3.756
303.15 K, x1 = 0.3999	858.167	4.639
303.15 K, x1 = 0.5	873.195	5.721
303.15 K, x1 = 0.6001	888.575	7.156
303.15 K, x1 = 0.7	904.186	8.892
303.15 K, x1 = 0.8	920.144	11.17
303.15 K, x1 = 0.8997	936.303	14.06
303.15 K, x1 = 1	952.612	17.9
308.15 K, x1 = 0.1	811.706	2.298
308.15 K, x1 = 0.2005	825.735	2.726
308.15 K, x1 = 0.3	839.932	3.23
308.15 K, x1 = 0.3999	854.42	3.944
308.15 K, x1 = 0.5	869.288	4.788
308.15 K, x1 = 0.6001	884.561	5.904
308.15 K, x1 = 0.7	900.162	7.231
308.15 K, x1 = 0.8	916.116	8.949
308.15 K, x1 = 0.8997	932.266	11.1
308.15 K, x1 = 1	948.577	13.88
313.15 K, x1 = 0.1	807.768	2.03
313.15 K, x1 = 0.2005	821.766	2.389
313.15 K, x1 = 0.3	835.94	2.801
313.15 K, x1 = 0.3999	850.406	3.377
313.15 K, x1 = 0.5	865.257	4.049
313.15 K, x1 = 0.6001	880.518	4.929
313.15 K, x1 = 0.7	896.106	5.957
313.15 K, x1 = 0.8	912.054	7.272
313.15 K, x1 = 0.8997	928.196	8.9
313.15 K, x1 = 1	944.515	10.96
318.15 K, x1 = 0.1	803.791	1.801
318.15 K, x1 = 0.2005	817.764	2.104
318.15 K, x1 = 0.3	831.911	2.445
318.15 K, x1 = 0.3999	846.355	2.915
318.15 K, x1 = 0.5	861.194	3.454
318.15 K, x1 = 0.6001	876.438	4.159
318.15 K, x1 = 0.7	892.017	4.969
318.15 K, x1 = 0.8	907.96	5.989
318.15 K, x1 = 0.8997	924.096	7.238
318.15 K, x1 = 1	940.423	8.798
323.15 K, x1 = 0.1	799.764	1.606
323.15 K, x1 = 0.2005	813.705	1.865
323.15 K, x1 = 0.3	827.834	2.144
323.15 K, x1 = 0.3999	842.264	2.535
323.15 K, x1 = 0.5	857.087	2.973
323.15 K, x1 = 0.6001	872.324	3.541
323.15 K, x1 = 0.7	887.889	4.192
323.15 K, x1 = 0.8	903.828	4.994
323.15 K, x1 = 0.8997	919.961	5.96
323.15 K, x1 = 1	936.293	7.166
328.15 K, x1 = 0.1	795.685	1.436
328.15 K, x1 = 0.2005	809.606	1.662
328.15 K, x1 = 0.3	823.708	1.887
328.15 K, x1 = 0.3999	838.127	2.218
328.15 K, x1 = 0.5	852.936	2.579
328.15 K, x1 = 0.6001	868.161	3.047
328.15 K, x1 = 0.7	883.72	3.568
328.15 K, x1 = 0.8	899.655	4.211
328.15 K, x1 = 0.8997	915.789	4.976
328.15 K, x1 = 1	932.13	5.915
333.15 K, x1 = 0.1	791.549	1.302
333.15 K, x1 = 0.2005	805.451	1.499
333.15 K, x1 = 0.3	819.532	1.699
333.15 K, x1 = 0.3999	833.936	1.973
333.15 K, x1 = 0.5	848.734	2.286
333.15 K, x1 = 0.6001	863.951	2.663
333.15 K, x1 = 0.7	879.505	3.099
333.15 K, x1 = 0.8	895.441	3.618
333.15 K, x1 = 0.8997	911.577	4.225
333.15 K, x1 = 1	927.93	4.986

From the NIST ThermoML archive (doi:10.1021/je401036f)
